Four molecules from BindingDB's records for doi:10.1021/jm00100a013 (Medical University of South Carolina, 1992) can be followed below.

The term Ki denotes the dissociation constant of the complex between target and ligand, obtained from inhibition or displacement. Lower therefore signals tighter binding.

The target of the test is Folylpolyglutamate synthase (Sus scrofa). Briefly: Inhibitory activity against hog liver Folyl polyglutamate synthetase (FPGS).
`NCCCC(NC(=O)c1ccc(CNc2ccc3nc(N)[nH]c(=O)c3c2C(F)(F)F)cc1)C(=O)O` (centres undefined) registered an inhibitory constant (Ki) of 11 nM. For `NCCCC(NC(=O)c1ccc(CNc2ccc3nc(N)[nH]c(=O)c3c2Cl)cc1)C(=O)O` (centres undefined) the value was 500 nM; for `NCCCC(NC(=O)c1ccc(NCc2ccc3nc(N)[nH]c(=O)c3c2C(F)(F)F)cc1)C(=O)O` (centres undefined), 8.8 nM.

The molecule `NCCCC(NC(=O)c1ccc(CNc2ccc3nc(N)[nH]c(=O)c3c2F)cc1)C(=O)O` (centres undefined) registered a Ki of 900 nM.
